Measured values: US12403166B2, “Labisia pumila extract composition and its pharmaceutical formulation” (MEDIKA NATURA SDN. BHD., priority 2021, dated 2025)

Tests used:
[1] = tested on: glutathione peroxidase (GPx); assay: Glutathione peroxidase (GPx) in DIO rats (anti-oxidant); type: in vivo, rat; details: 30 mg/kg, P≤0.01
[2] = tested on: glutathione S-transferase (GST); details: DIO rats, 30 mg/kg, P≤0.05

CCCCCCCCCCC[C@@H](C[C@@H]1OC(=O)[C@H]1CCCCCC)OC(=O)[C@H](CC(C)C)NC=O [Orlistat]
increase in GPx as compared to DIO control group [1]: 40.9%
increase in GST as compared to DIO control group [2]: 10.4%
